Results: patent US10487349B2, “Use of a fluidic device” (GRADIENTECH AB, priority 2013, dated 2019)

Key:
E. coli K12 MG1655 = experiment: Microfluidic 3D culture matrix concentration-gradient antibiotic susceptibility test (CELLDIRECTOR Ruby); type: cell-based, Escherichia coli; conditions: E. coli K12 MG1655 in agarose 3D culture matrix; gradient ampicillin 20-0 μg/ml or spectinomycin 50-0 μg/ml
Procedure: Bacterium strain E. coli K12 MG1655 was cultured on a Luria broth (LB) plate. The E. coli cells were diluted by phosphate buffered saline (PBS) to OD600=0.1 as measured by a MULTISKAN® FC Microplate Photometer (Thermo Scientific). Same volumes of PBS with OD600=0.1 cells and low-melting temperature agarose were mixed together. A pipette with white tips was used to suck up 8 μl of the mixture and inject the mixture into the culture chamber of a microfluidic device CELLDIRECTOR® Ruby (Gradientech AB), see upper panel in FIG. 20. The fluid channel inputs of the microfluidic device were connected to fluid reservoirs comprising Muelle-Hinton medium and where one of the reservoirs also contained 20 μg/ml ampicillin. The speed of a pusher used to draw the medium into the fluid channels was set to 5 μl/min for 30 minutes and then to 2 μl/min for the rest of the time. […]
The pictures were cut to match a selected central portion of the culture chamber, see black box in FIGS. 17A and 18A. Image processing software was used to extract detected light intensity data from the pictures. A spatial growth situation distribution diagram was used to summarize the grey-scale values, i.e. detected light intensity values, of all the lines that are perpendicular to the direction of the gradient as the Y-axis with the concentration gradient as the X-axis. […]

[1] = in agarose matrix; cited from earlier work

Row | Structure (SMILES) | resistance of the microorganism to the test substance, from width of the border zone (E. coli K12 MG1655) | diffusion constant D [1]
1 | CN[C@@H]1[C@H](O)[C@H](NC)[C@H]2O[C@@]3(O)C(=O)C[C@@H](C)O[C@H]3O[C@@H]2[C@H]1O [spectinomycin] | presence of spectinomycin resistance | 
2 | CC1(C)S[C@@H]2[C@H](NC(=O)[C@H](N)c3ccccc3)C(=O)N2[C@H]1C(=O)O [ampicillin] | no corresponding ampicillin resistance was detected | 0.016 cm^2/h
